Measured values as given in BindingDB's records for doi:10.1074/jbc.M809430200 (The Scripps Research Institute, 2009).

Columns and labels:
[1] = target: Mitogen-activated protein kinase 10 (Homo sapiens, UniProt P53779); experiment: Fluorescence Assay; conditions: pH 7; 22 °C
Method: (§1) Homogeneous time-resolved fluorescence assay is an enzyme inhibition studies that were performed in 384-well polystyrene homogeneous time-resolved fluorescence plates (grainier).

[2] = target: Mitogen-activated protein kinase 14 (p38α) (Homo sapiens) (UniProt Q16539); experiment: Homogeneous time-resolved fluorescence assay is an enzyme inhibition studies that were performed in 384-well polystyrene homogeneous time-resolved fluorescence plates (grainier).; conditions: pH 7
[3] = target: Mitogen-activated protein kinase 8 (Homo sapiens, UniProt P45983); experiment: Fluorescence Assay; conditions: pH 7; 22 °C
Method: as §1

Mitogen-activated protein kinase 10, sequence (P53779 whole entry): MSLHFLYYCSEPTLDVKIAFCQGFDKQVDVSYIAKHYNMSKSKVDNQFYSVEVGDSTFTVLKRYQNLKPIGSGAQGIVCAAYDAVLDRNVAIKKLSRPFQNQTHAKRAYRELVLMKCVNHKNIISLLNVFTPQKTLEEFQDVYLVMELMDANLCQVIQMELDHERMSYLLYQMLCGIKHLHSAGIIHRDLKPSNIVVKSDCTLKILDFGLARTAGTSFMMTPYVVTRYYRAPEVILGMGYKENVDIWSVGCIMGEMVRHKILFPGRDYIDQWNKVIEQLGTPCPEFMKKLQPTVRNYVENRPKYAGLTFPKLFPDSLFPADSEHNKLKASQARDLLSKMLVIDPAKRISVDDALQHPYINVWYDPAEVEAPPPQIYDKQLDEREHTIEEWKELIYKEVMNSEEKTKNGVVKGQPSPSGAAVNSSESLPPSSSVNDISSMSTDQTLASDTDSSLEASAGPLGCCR
Mitogen-activated protein kinase 8, sequence (P45983 whole entry): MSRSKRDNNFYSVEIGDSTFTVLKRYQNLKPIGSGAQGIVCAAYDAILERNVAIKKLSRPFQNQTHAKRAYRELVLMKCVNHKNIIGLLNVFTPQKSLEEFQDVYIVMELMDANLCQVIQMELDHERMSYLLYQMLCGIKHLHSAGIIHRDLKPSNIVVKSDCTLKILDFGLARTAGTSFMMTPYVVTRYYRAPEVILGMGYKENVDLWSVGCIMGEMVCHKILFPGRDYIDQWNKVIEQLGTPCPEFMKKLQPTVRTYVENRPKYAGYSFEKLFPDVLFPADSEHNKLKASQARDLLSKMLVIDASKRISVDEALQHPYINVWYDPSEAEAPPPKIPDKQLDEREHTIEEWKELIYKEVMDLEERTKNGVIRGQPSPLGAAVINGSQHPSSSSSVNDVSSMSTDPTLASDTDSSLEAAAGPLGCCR

Compound	IC50 [1]	IC50 [2]	IC50 [3]
COc1cc(NC(=O)c2cccc(-n3cc(NC(=O)Nc4ccc(Cl)cc4)cn3)c2)cc(OC)c1OC [Aminopyrazole inhibitor, 3583]	480 nM		
COc1cc(NC(=O)c2cccc(-n3cc(NC(=O)Nc4ccccc4)cn3)c2)cc(OC)c1OC [Aminopyrazole inhibitor, 3451]	25 nM	3700 nM	400 nM
Cc1cccc(NC(=O)Nc2cnn(-c3cccc(C(=O)NCCN4CCOCC4)c3)c2)c1 [Aminopyrazole inhibitor, 4018]	2100 nM	> 20000 nM	> 20000 nM
COc1cc(NC(=O)c2cccc(-n3cc(NC(=O)Nc4cccc(C)c4)cn3)c2)cc(OC)c1OC [Aminopyrazole inhibitor, 3576]	7 nM	> 20000 nM	170 nM
COc1cc(NC(=O)c2cccc(-n3cc(NC(=O)Nc4ccccc4Cl)cn3)c2)cc(OC)c1OC [Aminopyrazole inhibitor, 3528]	23 nM	> 20000 nM	560 nM

The remaining lines, values ahead:

IC50 [1]	IC50 [2]	IC50 [3]	Compound
2200 nM	> 20000 nM	> 20000 nM	Cc1cncc(NC(=O)c2cc(N(C)C)cc(-n3cc(NC(=O)Nc4ccccc4Cl)cn3)c2)c1 [Aminopyrazole inhibitor, 4642]
350 nM	> 20000 nM		O=C(Nc1cnn(-c2cccc(C(=O)NCCCN3CCOCC3)c2)c1)Nc1ccccc1Cl [Aminopyrazole inhibitor, 4276]
1500 nM	> 20000 nM	> 20000 nM	Cc1cncc(NC(=O)c2cc(N3CCOCC3)cc(-n3cc(NC(=O)Nc4ccccc4Cl)cn3)c2)c1 [Aminopyrazole inhibitor, 4643]
55 nM	> 20000 nM	1400 nM	Cc1cncc(NC(=O)c2cccc(-n3cc(NC(=O)Nc4ccccc4Cl)cn3)c2)c1 [Aminopyrazole inhibitor, 4326]
